The test concerns the target human Factor Xa (Homo sapiens, UniProt P00742). Briefly: In vitro assay for inhibition of Factor Xa (1), chromogenic assay. The class given is biochemical. The settings on record: substrate N-α-benzyloxycarbonyl-D-Arg-Gly-Arg-p-nitroanilide 200 μM, Ki calculated from IC50. On the procedure: • 1. Klimkowski, Valentine Joseph; Kyle, Jeffrey Alan; Masters, John Joseph; Wiley, Michael Robert. PCT Int. Appl. (2000), WO 0039092. In Vitro Assay for Inhibition of Factor Xa (1)
Compounds were diluted from a 10 mM stock solution in dimethylsulfoxide at appropriate concentrations. Assay was performed at room temperature using buffer consisting of: 50 mM Tris-HCl, 150 mM NaCl, 5 mM CaCl2, pH 7.4. containing human Factor Xa (final conc. of 0.0015 U,ml^−1). Compound and enzyme were preincubated for 15 min prior to addition of the substrate (final conc. of 200 μM). The reaction was stopped after 30 min with the addition of soybean trypsin inhibitor or H-D-PHE-PRO-ARG-Chloromethylketone. BioTek EL340 or Tecan Spectrafluoro Plus plate readers were used to monitor the absorbance at 405 nm. To obtain IC50 values the data were analysed using ActivityBase® and XLfit®.
Calculation of Ki values:
Ki=IC50/(1+[Substrate]/Km)
The Ki value for the above assay can be obtained by dividing the IC50 value by 1.6.

Chain of human Factor Xa (P00742 235-488 limits assumed): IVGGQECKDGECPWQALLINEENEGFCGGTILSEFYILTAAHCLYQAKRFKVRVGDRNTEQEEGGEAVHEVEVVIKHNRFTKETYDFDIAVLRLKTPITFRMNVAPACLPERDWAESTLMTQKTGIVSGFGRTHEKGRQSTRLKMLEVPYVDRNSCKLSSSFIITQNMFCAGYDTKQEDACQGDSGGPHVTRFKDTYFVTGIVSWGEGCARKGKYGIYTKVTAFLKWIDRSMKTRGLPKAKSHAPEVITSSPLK
Chain of human Factor Xa (P00742 41-179 partner limits assumed): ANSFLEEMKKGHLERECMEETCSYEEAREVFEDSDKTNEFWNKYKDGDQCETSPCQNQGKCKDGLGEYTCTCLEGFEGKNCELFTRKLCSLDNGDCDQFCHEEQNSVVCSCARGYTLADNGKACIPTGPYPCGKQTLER

What is called Ki is a dissociation constant, usually derived from enzyme kinetics or from competition with a known ligand. `CS(=O)(=O)c1ccccc1-c1ccc(N2CC[C@H](NS(=O)(=O)c3cc4cc(Cl)ccc4o3)C2=O)nc1` [Example 23, 5-Chloro-N-((3S)-1-{5-[2-(methylsulfonyl)phenyl]pyridin-2-yl}-2-oxopyrrolidin-3-yl)-1-benzofuran-2-sulfonamide]: the Ki was under 1000 nM.
Take `Cc1ccc(-c2ccc(N3CC[C@H](NS(=O)(=O)c4ccc5cc(Cl)ccc5c4)C3=O)c(F)c2)o1` [Example 73, 6-Chloro-N-{(3S)-1-[2-fluoro-4-(5-methyl-2-furyl)phenyl]-2-oxopyrrolidin-3-yl}naphthalene-2-sulfonamide]: the Ki was under 1000 nM.
With `O=C1[C@@H](NS(=O)(=O)c2ccc3cc(Cl)ccc3c2)CCN1c1ccc(-c2ccncc2Cl)cc1F` [Example 83, 6-chloro-N-{(3S)-1-[4-(3-Chloropyridin-4-yl)-2-fluorophenyl]-2-oxopyrrolidin-3-yl}naphthalene-2-sulfonamide], the Ki is under 10 nM.
Regarding `Cn1cncc1-c1ccc(N2CC[C@H](NS(=O)(=O)c3ccc4cc(Cl)ccc4c3)C2=O)c(F)c1` [Example 85, 6-Chloro-N-{(3S)-1-[2-fluoro-4-(1-methyl-1H-imidazol-5-yl)phenyl]-2-oxopyrrolidin-3-yl}naphthalene-2-sulfonamide], the inhibition constant (Ki) is under 10 nM.
Consider `O=C1[C@@H](NS(=O)(=O)c2ccc3cc(Cl)ccc3c2)CCN1c1ccc(I)cc1F` [Example 89, 6-Chloro-N-[(3S)-1-(2-fluoro-4-iodophenyl)-2-oxopyrrolidin-3-yl]naphthalene-2-sulfonamide], for which the inhibition constant Ki is under 200 nM.
`O=C1[C@@H](NS(=O)(=O)/C=C/c2ccc(Cl)s2)CCN1c1ccc(I)cn1` [Example 90, (E)-2-(5-Chlorothien-2-yl)-N-[(3S)-1-(5-iodopyridin-2yl)oxopyrrolidin-3-yl]ethenesulfonamide]: the inhibition constant Ki was under 1000 nM.
For `CC(C)(C)c1ccc(N2CC[C@H](NS(=O)(=O)c3ccc4cc(Cl)ccc4c3)C2=O)cc1` [Example 125, N-[(3S)-1-(4-tert-butylphenyl)-2-oxopyrrolidinyl]-6-chloro-2-naphthalenesulfonamide], the Ki was under 200 nM.

The values are drawn from patent publication US20050059726A1, “Pyrrolidine-2-ones as factor xa inhibitors” (priority 2001, published 2005).
